Measurements from PubChem BioAssay (NCI).
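A five-concentration, 48-hour dose response in 96-well plates underlies each endpoint, interpolated linearly between surrounding concentrations. At the GI50, growth is halved. The concentration for full growth arrest is given as TGI.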

Columns and labels:
Assay in all cases: DTP human tumour cell line panel, 48 h
786-0 renal = system: 786-0 renal
A498 renal = system: A498 renal
A549 NSCLC = system: A549 NSCLC
ACHN renal = system: ACHN renal
BT-549 breast = system: BT-549 breast
CAKI-1 renal = system: CAKI-1 renal
CCRF-CEM leukemia = system: CCRF-CEM leukemia
DU-145 prostate = system: DU-145 prostate
EKVX NSCLC = system: EKVX NSCLC
HCC-2998 colon = system: HCC-2998 colon
HCT-116 colon = system: HCT-116 colon
HCT-15 colon = system: HCT-15 colon
HL-60(TB) leukemia = system: HL-60(TB) leukemia
HOP-62 NSCLC = system: HOP-62 NSCLC
HOP-92 NSCLC = system: HOP-92 NSCLC
HS 578T breast = system: HS 578T breast
HT29 colon = system: HT29 colon
IGROV1 ovarian = system: IGROV1 ovarian
K-562 leukemia = system: K-562 leukemia
KM12 colon = system: KM12 colon
LOX IMVI melanoma = system: LOX IMVI melanoma
M14 melanoma = system: M14 melanoma
MALME-3M melanoma = system: MALME-3M melanoma
MCF7 breast = system: MCF7 breast
MDA-MB-231 breast = system: MDA-MB-231 breast
MDA-MB-435 = system: MDA-MB-435
MDA-MB-468 breast = system: MDA-MB-468 breast
MOLT-4 leukemia = system: MOLT-4 leukemia
NCI-H226 lung = system: NCI-H226 lung
NCI-H23 lung = system: NCI-H23 lung
NCI-H460 lung = system: NCI-H460 lung
NCI-H522 lung = system: NCI-H522 lung
NCI/ADR-RES ovarian = system: NCI/ADR-RES ovarian
OVCAR-3 ovarian = system: OVCAR-3 ovarian
OVCAR-4 ovarian = system: OVCAR-4 ovarian
OVCAR-5 ovarian = system: OVCAR-5 ovarian
OVCAR-8 ovarian = system: OVCAR-8 ovarian
PC-3 prostate = system: PC-3 prostate
RPMI-8226 leukemia = system: RPMI-8226 leukemia
RXF 393 renal = system: RXF 393 renal
SF-268 CNS = system: SF-268 CNS
SF-295 CNS = system: SF-295 CNS
SF-539 CNS = system: SF-539 CNS
SK-MEL-2 melanoma = system: SK-MEL-2 melanoma
SK-MEL-28 melanoma = system: SK-MEL-28 melanoma
SK-MEL-5 melanoma = system: SK-MEL-5 melanoma
SK-OV-3 ovarian = system: SK-OV-3 ovarian
SN12C renal = system: SN12C renal
SNB-19 CNS = system: SNB-19 CNS
SNB-75 CNS = system: SNB-75 CNS
SR leukemia = system: SR leukemia
SW-620 colon = system: SW-620 colon
T-47D breast = system: T-47D breast
TK-10 renal = system: TK-10 renal
U251 CNS = system: U251 CNS
UACC-257 melanoma = system: UACC-257 melanoma
UACC-62 melanoma = system: UACC-62 melanoma
UO-31 renal = system: UO-31 renal

CCCS(=O)(=O)c1oc(-c2ccc(F)cc2)nc1S(=O)(=O)c1ccc(F)cc1
GI50 (786-0 renal): 1.6 µM | TGI (786-0 renal): 3.1 µM | GI50 (A498 renal): 17.2 µM | TGI (A498 renal): 31 µM | GI50 (A549 NSCLC): 13.3 µM | TGI (A549 NSCLC): 30.6 µM | GI50 (ACHN renal): 1.61 µM | TGI (ACHN renal): 2.96 µM | GI50 (BT-549 breast): 1.98 µM | TGI (BT-549 breast): 3.57 µM | GI50 (CAKI-1 renal): 1.43 µM | TGI (CAKI-1 renal): 2.76 µM | GI50 (CCRF-CEM leukemia): 0.298 µM | TGI (CCRF-CEM leukemia): 1.09 µM | GI50 (DU-145 prostate): 1.59 µM | TGI (DU-145 prostate): 2.96 µM | GI50 (EKVX NSCLC): 1.62 µM | TGI (EKVX NSCLC): 3.27 µM | GI50 (HCC-2998 colon): 4.05 µM | TGI (HCC-2998 colon): 15.9 µM | GI50 (HCT-116 colon): 1.6 µM | TGI (HCT-116 colon): 3.49 µM | GI50 (HCT-15 colon): 1.22 µM | TGI (HCT-15 colon): 2.73 µM | GI50 (HL-60(TB) leukemia): 2.17 µM | TGI (HL-60(TB) leukemia): > 100 µM | GI50 (HOP-62 NSCLC): 15.7 µM | TGI (HOP-62 NSCLC): 31.1 µM | GI50 (HOP-92 NSCLC): 1.8 µM | TGI (HOP-92 NSCLC): 4.08 µM | GI50 (HS 578T breast): 2.33 µM | TGI (HS 578T breast): 7.43 µM | GI50 (HT29 colon): 2.06 µM | TGI (HT29 colon): 4.9 µM | GI50 (IGROV1 ovarian): 1.84 µM | TGI (IGROV1 ovarian): 3.84 µM | GI50 (K-562 leukemia): 1.64 µM | TGI (K-562 leukemia): > 100 µM | GI50 (KM12 colon): 14.5 µM | TGI (KM12 colon): 31 µM | GI50 (LOX IMVI melanoma): 1.28 µM | TGI (LOX IMVI melanoma): 2.6 µM | GI50 (M14 melanoma): 1.68 µM | TGI (M14 melanoma): 3.56 µM | GI50 (MALME-3M melanoma): 1.49 µM | TGI (MALME-3M melanoma): 2.83 µM | GI50 (MCF7 breast): 1.3 µM | TGI (MCF7 breast): 3.08 µM | GI50 (MDA-MB-231 breast): 1.65 µM | TGI (MDA-MB-231 breast): 3.04 µM | GI50 (MDA-MB-435): 1.45 µM | TGI (MDA-MB-435): 2.98 µM | GI50 (MDA-MB-468 breast): 1.29 µM | TGI (MDA-MB-468 breast): 2.89 µM | GI50 (MOLT-4 leukemia): 1.14 µM | TGI (MOLT-4 leukemia): > 100 µM | GI50 (NCI-H226 lung): 13 µM | TGI (NCI-H226 lung): 34.8 µM | GI50 (NCI-H23 lung): 1.9 µM | TGI (NCI-H23 lung): 4.22 µM | GI50 (NCI-H460 lung): 4.46 µM | TGI (NCI-H460 lung): 19.4 µM | GI50 (NCI-H522 lung): 1.19 µM | TGI (NCI-H522 lung): 2.64 µM | GI50 (NCI/ADR-RES ovarian): 2.36 µM | TGI (NCI/ADR-RES ovarian): 6.35 µM | GI50 (OVCAR-3 ovarian): 1.35 µM | TGI (OVCAR-3 ovarian): 2.77 µM | GI50 (OVCAR-4 ovarian): 1.86 µM | TGI (OVCAR-4 ovarian): 4.04 µM | GI50 (OVCAR-5 ovarian): 3.48 µM | TGI (OVCAR-5 ovarian): 13.7 µM | GI50 (OVCAR-8 ovarian): 2.12 µM | TGI (OVCAR-8 ovarian): 4.99 µM | GI50 (PC-3 prostate): 3.51 µM | TGI (PC-3 prostate): 16.7 µM | GI50 (RPMI-8226 leukemia): 2.22 µM | TGI (RPMI-8226 leukemia): 7.44 µM | GI50 (RXF 393 renal): 1.1 µM | TGI (RXF 393 renal): 2.44 µM | GI50 (SF-268 CNS): 3.18 µM | TGI (SF-268 CNS): 14.7 µM | GI50 (SF-295 CNS): 12.6 µM | TGI (SF-295 CNS): 25.5 µM | GI50 (SF-539 CNS): 1.55 µM | TGI (SF-539 CNS): 2.89 µM | GI50 (SK-MEL-2 melanoma): 10.4 µM | TGI (SK-MEL-2 melanoma): 22.7 µM | GI50 (SK-MEL-28 melanoma): 1.74 µM | TGI (SK-MEL-28 melanoma): 3.17 µM | GI50 (SK-MEL-5 melanoma): 3.32 µM | TGI (SK-MEL-5 melanoma): 12 µM | GI50 (SK-OV-3 ovarian): 16.3 µM | TGI (SK-OV-3 ovarian): 30.9 µM | GI50 (SN12C renal): 2.62 µM | TGI (SN12C renal): 9.51 µM | GI50 (SNB-19 CNS): 15 µM | TGI (SNB-19 CNS): 28.2 µM | GI50 (SNB-75 CNS): 4.23 µM | TGI (SNB-75 CNS): 18.4 µM | GI50 (SR leukemia): 1.6 µM | TGI (SR leukemia): > 100 µM | GI50 (SW-620 colon): 0.685 µM | TGI (SW-620 colon): 2.17 µM | GI50 (T-47D breast): 1.83 µM | TGI (T-47D breast): 4.2 µM | GI50 (TK-10 renal): 1.88 µM | TGI (TK-10 renal): 3.35 µM | GI50 (U251 CNS): 16.4 µM | TGI (U251 CNS): 30.6 µM | GI50 (UACC-257 melanoma): 1.62 µM | TGI (UACC-257 melanoma): 3.13 µM | GI50 (UACC-62 melanoma): 1.68 µM | TGI (UACC-62 melanoma): 3.11 µM | GI50 (UO-31 renal): 1.46 µM | TGI (UO-31 renal): 2.78 µM
